# How the values were obtained:
# hA1 AR = molecular target: T1, hA1 AR (Homo sapiens, UniProt P30542); assay: Radioligand binding at hA1 AR
# T1 sequence (P30542 1-326): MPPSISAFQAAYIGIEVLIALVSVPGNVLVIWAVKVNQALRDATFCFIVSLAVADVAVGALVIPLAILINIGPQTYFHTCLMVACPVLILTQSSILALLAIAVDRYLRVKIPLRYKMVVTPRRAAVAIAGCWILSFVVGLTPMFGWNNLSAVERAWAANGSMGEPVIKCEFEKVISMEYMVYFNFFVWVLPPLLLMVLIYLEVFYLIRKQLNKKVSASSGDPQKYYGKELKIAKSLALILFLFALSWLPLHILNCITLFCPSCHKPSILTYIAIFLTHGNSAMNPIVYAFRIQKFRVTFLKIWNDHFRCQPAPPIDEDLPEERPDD
# hA3 AR = molecular target: T2, hA3 AR (Homo sapiens, UniProt P0DMS8); assay: Radioligand binding at hA3 AR
# T2 sequence (P0DMS8 1-318): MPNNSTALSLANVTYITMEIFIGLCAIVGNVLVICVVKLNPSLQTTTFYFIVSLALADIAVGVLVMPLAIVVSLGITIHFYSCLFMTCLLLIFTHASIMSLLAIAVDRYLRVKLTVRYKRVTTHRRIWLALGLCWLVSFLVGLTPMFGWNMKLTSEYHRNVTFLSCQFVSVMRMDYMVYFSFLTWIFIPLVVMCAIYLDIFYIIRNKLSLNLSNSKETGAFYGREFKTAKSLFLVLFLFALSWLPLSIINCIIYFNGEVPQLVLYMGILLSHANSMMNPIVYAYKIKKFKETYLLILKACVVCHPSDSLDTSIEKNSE
# human washed platelets = assay: Inhibition of ADP-induced aggregation of human washed platelets; format: cell-based; settings: Platelet, read-out: IC50, inhibition of platelet aggregation
# hA2B AR = molecular target: T3, hA2B AR (Homo sapiens, UniProt P29275); assay: Cyclic AMP accumulation assay, CHO cells expressing hA2B AR; format: cell-based; settings: at 10 μM, in comparison to full agonist NECA (100%)
# T3 sequence (P29275 1-332): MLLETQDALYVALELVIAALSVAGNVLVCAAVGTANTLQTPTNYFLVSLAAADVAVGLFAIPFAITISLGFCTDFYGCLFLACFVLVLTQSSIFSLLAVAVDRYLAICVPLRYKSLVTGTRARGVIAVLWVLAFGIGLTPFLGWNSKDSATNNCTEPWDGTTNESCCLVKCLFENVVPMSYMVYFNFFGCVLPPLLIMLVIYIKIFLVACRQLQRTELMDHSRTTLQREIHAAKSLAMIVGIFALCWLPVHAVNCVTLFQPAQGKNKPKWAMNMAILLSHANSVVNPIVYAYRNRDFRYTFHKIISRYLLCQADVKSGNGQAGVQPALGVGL
# [1] = inhibition of radioligand binding at 1 μM
inhibition at 1 µM (hA1 AR; read-out: hA1 % inhibition) [%],inhibition at 1 µM (hA3 AR; read-out: hA3 % inhibition) [%],IC50 (human washed platelets) [nM],SMILES,hA1 % inhibition (hA1 AR; [1]) [%],hA3 % inhibition (hA3 AR; [1]) [%],hA2B % activation of adenylate cyclase (hA2B AR) [%]
24.9 ± 4.6,59.8 ± 4.4,192 ± 90,"CCNC(=O)[C@H]1O[C@@H](n2cnc3c(N)nc(NCCc4ccc(CCC(=O)O)cc4)nc32)[C@H](O)[C@@H]1O [compound 1, 2-[4-(2-carboxylethyl)phenylethylamino]-5′-N-ethylcarboxamidoadenosine, reference compound]",,,
,,,"CCNC(=O)[C@H]1O[C@@H](n2cnc3c(N)nc(NCCc4ccc(CCC(=O)NCCN)cc4)nc32)[C@H](O)[C@@H]1O [compound 2, 2-[4-(2-Aminoethylaminocarbonylethyl)phenylethylamino]-5′-N-ethylcarboxamidoadenosine, reference compound]",56.9 ± 9.1,85.3 ± 3.2,5.5 ± 4.7

# — PMC2891302 (Bioconjugate chemistry, 2009)
